Data: PubChem BioAssay (NCI)
Where “and” joins values, the source holds several entries; their conditions need not be identical. Identical values can stand only once.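 Step 1: Grow cells in 96-well plates. Step 2: Expose to compound for 48 hours at 5 concentrations. Step 3: Interpolate endpoints linearly; if unreached, use highest concentration. GI50 marks 50% less growth. TGI: total growth inhibition.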

These molecules were tested on HL-60(TB) leukemia (assay: inhibition of tumour cell growth, NCI panel, 48 h).
With `O=C(CC(=O)Nc1ccccc1)NNC(Sc1ccccc1)c1cc(N=Nc2ccc(Br)cc2)ccc1O` (centres undefined) the TGI was 1.9 µM.
For `Cc1cc(C(=O)CSC(=S)SC(C)(C)C)ccc1Cl`, the TGI was 44.1 µM.
For `C=CC12CCN(CC1)C(C(O)c1ccnc3ccc(OC)cc13)C2` (centres undefined), the GI50 was greater than 100 µM and the TGI was greater than 100 µM.
Molecule `O=C(Nc1nc(-c2c[nH]c3ccccc23)cs1)c1n[nH]c(=O)c2ccccc12` has a GI50 of 0.777 µM and a TGI greater than 100 µM.
In the case of `CN(C)CCN1CCC(Cc2ccccc2)CC1`, the GI50 is reported as 26.8 µM and the TGI is reported as greater than 80 µM.
`COc1cc2c3c(n(C)c(=O)c2cc1OC)-c1cc2c(cc1C3=O)OCO2` gave a TGI greater than 100 µM.
Molecule `COc1ccc(/C=C\c2cc(OC)c(OC)c(OC)c2)cc1OCC(=O)O` has a TGI of 23.8 µM.
With `O=C(CNc1ccc(Cl)cc1Cl)Nn1c(-c2ccccc2)nc2ccccc2c1=O` the TGI was greater than 100 µM.
In the case of `CO[C@@H]1CC[C@]2(C)OC[C@H](C)[C@@H]3C[C@@H](C)[C@@H](OC(C)=O)[C@@H]4[C@H]3[C@@H]2O[C@H]4C[C@@]1(C)O`, the GI50 is reported as greater than 100 µM and the TGI is reported as greater than 100 µM.
`CSC[C@H](NC(=O)COc1cccc2cnccc12)C(=O)NC(Cc1ccccc1)C(O)C(=O)N1CSC[C@H]1C(=O)NC(C)(C)C` (some centres undefined) gave a TGI of 91.4 µM.
`O=C(Nc1ncc(Cc2cccc(C(F)(F)F)c2)s1)c1ccc2c(c1)OCCO2` showed a GI50 of 0.34 µM and a TGI greater than 100 µM.
Molecule `NC(=O)c1cc(I)ccc1NC(=O)/C=C/c1ccccc1` has a GI50 of 0.13 µM and a TGI of 0.912 µM.
`COc1ccc(CNc2c3ccccc3nc3ccccc23)cc1F` showed a GI50 of 3.37 µM and a TGI of 10.4 µM.
`CNc1cc2oc(=O)cc(C)c2cc1C` was tested, and the TGI was greater than 100 µM.
In the case of `NCCCn1c2c(c3ccc([N+](=O)[O-])cc3c1=O)C(=O)c1cc(I)ccc1-2`, the GI50 is reported as less than 0.0176 µM and the TGI is reported as 0.0733 µM.

These molecules were tested on HS 578T breast (assay: inhibition of tumour cell growth, NCI panel, 48 h).
Work on `Nc1c(C(=O)Nc2ccccn2)sc2nc3c(cc12)C(=O)CCC3` yielded a GI50 of 0.804 µM and a TGI of 93.7 µM.
In the case of `COc1ccc2c(=O)oc3c(OC)cc(CCN(C)C)c4c(=O)oc1c2c34`, the TGI is reported as 24 µM.
Work on `COc1ccc(Cl)cc1NC(=O)c1ccc(NC2=C(Cl)C(=O)N(Cc3ccccc3)C2=O)cc1` yielded a GI50 of 37.1 µM and a TGI greater than 100 µM.
Work on `Cc1cccc(NC2=C(Cl)C(=O)c3nc(C)ccc3C2=O)c1` yielded a GI50 of 1.68 µM and a TGI of 4.58 µM.
For `COc1cc2c(cc1OCCCN1CCN(CCCOc3cc4c(cc3OC)C(=O)N3CC(F)(F)C[C@H]3C=N4)CC1)N=C[C@@H]1CC(F)(F)CN1C2=O`, the GI50 was 2.32 µM and the TGI was 9.55 µM.
Work on `CCCCCCCCSC1=C(Cl)C(=O)C(OC)=C(OC)C1=O` yielded a TGI of 66.6 µM.
With `COC(=O)C1=CN(CC2=CC(=O)C(C)=CC2=O)C=C(C(=O)OC)C1c1ccccc1OC` the GI50 was 25.9 µM and the TGI was 77.8 µM.
`COc1cccc2c1O/C(=C\c1ccc([N+](=O)[O-])s1)C2=O` showed a GI50 of 2.99 µM and a TGI greater than 32.1 µM.
`COC(=O)/C=C/c1cc(OC(C)=O)c2c(c1)C(C(=O)OC)C(c1ccc(OC(C)=O)c(OC(C)=O)c1)O2` (centres undefined) showed a GI50 of 0.0521 µM and a TGI of 68.2 µM.
In the case of `O=C(O)c1ccc(CNCc2ccccc2)cc1`, the TGI is reported as greater than 100 µM.
`C=C(C)C(C1C=C(CCC(C=O)=C(C)C)C(=O)O1)C1(OC)C=C(C)C(=O)O1` (centres undefined) was tested, and the GI50 was greater than 100 µM and the TGI was greater than 100 µM.
For `CC(C)=CCC1=C(O)c2ccccc2C(=O)C1=O`, the TGI was greater than 100 µM.
With `O=[N+]([O-])c1ccccc1N=Nc1c(O)[nH]c2c(Cl)cc(Cl)cc12` the TGI was 53 µM.
With `NC(=S)N/N=C/c1ncccc1O` the TGI was 835 µM.
`O=C(CC(=O)Nc1ccccc1)NNC(Sc1ccccc1)c1cc(N=Nc2ccc(Br)cc2)ccc1O` (centres undefined) gave a TGI greater than 10 µM.
With `Cc1cc(C(=O)CSC(=S)SC(C)(C)C)ccc1Cl` the TGI was 82.3 µM.
`C=CC12CCN(CC1)C(C(O)c1ccnc3ccc(OC)cc13)C2` (centres undefined) showed a GI50 greater than 100 µM and a TGI greater than 100 µM.
`O=C(Nc1nc(-c2c[nH]c3ccccc23)cs1)c1n[nH]c(=O)c2ccccc12` showed a GI50 of 5.52 µM and a TGI of 55 µM.
`CN(C)CCN1CCC(Cc2ccccc2)CC1` showed a GI50 of 44.1 µM and a TGI greater than 80 µM.
`COc1cc2c3c(n(C)c(=O)c2cc1OC)-c1cc2c(cc1C3=O)OCO2` was tested, and the TGI was greater than 100 µM.
`COc1ccc(/C=C\c2cc(OC)c(OC)c(OC)c2)cc1OCC(=O)O` gave a TGI of 9.25 µM.
`O=C(CNc1ccc(Cl)cc1Cl)Nn1c(-c2ccccc2)nc2ccccc2c1=O` gave a TGI of 71.8 µM.
`CO[C@@H]1CC[C@]2(C)OC[C@H](C)[C@@H]3C[C@@H](C)[C@@H](OC(C)=O)[C@@H]4[C@H]3[C@@H]2O[C@H]4C[C@@]1(C)O` gave a GI50 greater than 100 µM and a TGI greater than 100 µM.
`CSC[C@H](NC(=O)COc1cccc2cnccc12)C(=O)NC(Cc1ccccc1)C(O)C(=O)N1CSC[C@H]1C(=O)NC(C)(C)C` (some centres undefined) was tested, and the TGI was greater than 100 µM.
Molecule `O=C(Nc1ncc(Cc2cccc(C(F)(F)F)c2)s1)c1ccc2c(c1)OCCO2` has a GI50 of 0.306 µM and a TGI greater than 66.4 µM.
Molecule `NC(=O)c1cc(I)ccc1NC(=O)/C=C/c1ccccc1` has a GI50 of 0.364 µM and a TGI of 15.4 µM.
`COc1ccc(CNc2c3ccccc3nc3ccccc23)cc1F` showed a GI50 of 3.06 µM and a TGI of 11.5 µM.
`CNc1cc2oc(=O)cc(C)c2cc1C` gave a TGI greater than 100 µM.
For `NCCCn1c2c(c3ccc([N+](=O)[O-])cc3c1=O)C(=O)c1cc(I)ccc1-2`, the GI50 was 1.98 µM and the TGI was 4.33 µM.

Each molecule was assayed on OVCAR-3 ovarian (assay: inhibition of tumour cell growth, NCI panel, 48 h).
With `Nc1c(C(=O)Nc2ccccn2)sc2nc3c(cc12)C(=O)CCC3` the GI50 was 0.792 µM and the TGI was 14.7 µM.
`COc1ccc2c(=O)oc3c(OC)cc(CCN(C)C)c4c(=O)oc1c2c34` was tested, and the TGI was 30 µM and 19.8 µM.
`COc1ccc(Cl)cc1NC(=O)c1ccc(NC2=C(Cl)C(=O)N(Cc3ccccc3)C2=O)cc1` gave a GI50 of 36.3 µM and a TGI greater than 100 µM.
Molecule `Cc1cccc(NC2=C(Cl)C(=O)c3nc(C)ccc3C2=O)c1` has a GI50 of 0.262 µM and a TGI of 1.18 µM.
`COc1cc2c(cc1OCCCN1CCN(CCCOc3cc4c(cc3OC)C(=O)N3CC(F)(F)C[C@H]3C=N4)CC1)N=C[C@@H]1CC(F)(F)CN1C2=O` was tested, and the GI50 was 3.55 µM and the TGI was 10.6 µM.
`CCCCCCCCSC1=C(Cl)C(=O)C(OC)=C(OC)C1=O` gave a TGI of 23.8 µM.
With `COC(=O)C1=CN(CC2=CC(=O)C(C)=CC2=O)C=C(C(=O)OC)C1c1ccccc1OC` the GI50 was 13.2 µM and the TGI was 26.8 µM.
`COc1cccc2c1O/C(=C\c1ccc([N+](=O)[O-])s1)C2=O` was tested, and the GI50 was 1.94 µM and the TGI was 4.53 µM.
With `COC(=O)/C=C/c1cc(OC(C)=O)c2c(c1)C(C(=O)OC)C(c1ccc(OC(C)=O)c(OC(C)=O)c1)O2` (centres undefined) the GI50 was 0.0374 µM and the TGI was 15.8 µM.
`O=C(O)c1ccc(CNCc2ccccc2)cc1` showed a TGI greater than 100 µM.
For `C=C(C)C(C1C=C(CCC(C=O)=C(C)C)C(=O)O1)C1(OC)C=C(C)C(=O)O1` (centres undefined), the GI50 was greater than 100 µM and the TGI was greater than 100 µM.
In the case of `CC(C)=CCC1=C(O)c2ccccc2C(=O)C1=O`, the TGI is reported as greater than 100 µM.
With `O=[N+]([O-])c1ccccc1N=Nc1c(O)[nH]c2c(Cl)cc(Cl)cc12` the TGI was greater than 74.7 µM.
For `NC(=S)N/N=C/c1ncccc1O`, the GI50 was 2.77 µM and the TGI was > 59.3 µM and 123 µM.
Molecule `O=C(CC(=O)Nc1ccccc1)NNC(Sc1ccccc1)c1cc(N=Nc2ccc(Br)cc2)ccc1O` (centres undefined) has a TGI greater than 10 µM.
`Cc1cc(C(=O)CSC(=S)SC(C)(C)C)ccc1Cl` gave a TGI of 35.4 µM.
Molecule `C=CC12CCN(CC1)C(C(O)c1ccnc3ccc(OC)cc13)C2` (centres undefined) has a GI50 greater than 100 µM and a TGI greater than 100 µM.
In the case of `O=C(Nc1nc(-c2c[nH]c3ccccc23)cs1)c1n[nH]c(=O)c2ccccc12`, the GI50 is reported as 13.6 µM and the TGI is reported as greater than 83.7 µM.
In the case of `CN(C)CCN1CCC(Cc2ccccc2)CC1`, the GI50 is reported as greater than 80 µM and the TGI is reported as greater than 80 µM.
Work on `COc1cc2c3c(n(C)c(=O)c2cc1OC)-c1cc2c(cc1C3=O)OCO2` yielded a TGI greater than 100 µM.
Work on `COc1ccc(/C=C\c2cc(OC)c(OC)c(OC)c2)cc1OCC(=O)O` yielded a TGI of 8.25 µM.
With `O=C(CNc1ccc(Cl)cc1Cl)Nn1c(-c2ccccc2)nc2ccccc2c1=O` the TGI was 31.3 µM.
`CO[C@@H]1CC[C@]2(C)OC[C@H](C)[C@@H]3C[C@@H](C)[C@@H](OC(C)=O)[C@@H]4[C@H]3[C@@H]2O[C@H]4C[C@@]1(C)O` gave a GI50 of 78.1 µM and a TGI greater than 100 µM.
`CSC[C@H](NC(=O)COc1cccc2cnccc12)C(=O)NC(Cc1ccccc1)C(O)C(=O)N1CSC[C@H]1C(=O)NC(C)(C)C` (some centres undefined) showed a TGI greater than 100 µM.
In the case of `O=C(Nc1ncc(Cc2cccc(C(F)(F)F)c2)s1)c1ccc2c(c1)OCCO2`, the GI50 is reported as 0.223 µM and the TGI is reported as 0.629 µM.
With `NC(=O)c1cc(I)ccc1NC(=O)/C=C/c1ccccc1` the GI50 was 0.32 µM and the TGI was 1.01 µM.
`COc1ccc(CNc2c3ccccc3nc3ccccc23)cc1F` showed a GI50 of 4.08 µM and a TGI of 13.3 µM.
With `CNc1cc2oc(=O)cc(C)c2cc1C` the TGI was greater than 100 µM.
Work on `NCCCn1c2c(c3ccc([N+](=O)[O-])cc3c1=O)C(=O)c1cc(I)ccc1-2` yielded a GI50 of 1.19 µM and a TGI of 2.9 µM.
